Data: patent US20240166626A1, “Compounds and Methods for Preventing, Treating, or Ameliorating Airway Disease” (THOMAS JEFFERSON UNIVERSITY, priority 2021, published 2024)

Target: β2AR (Homo sapiens, UniProt P07550)
Experiment: cAMP measurement by ELISA in HEK 293 cells stably overexpressing β2AR
Type: cell-based
Protocol: Schematic of screening methodologies for cAMP production and β-arrestin binding. Cells were treated with the unbiased beta-agonist isoproterenol (ISO)±test compounds. The primary high throughput screen utilized a luciferase-based cAMP biosensor, GLOSENSORTM (Promega), and an enzyme complementation-based assay, […]® (DiscoveRx). Independent secondary screening utilized a cAMP ELISA and BRET for β-arrestin recruitment. […] Secondary screen for cAMP production by ELISA. […] Cells were lysed and cAMP production was measured. […] Dose response curve for DFPQ as measured by BRET. […] Data for dose response curve was taken 12 min post ISO addition. n=3. […] Cells were lysed and cAMP production was measured by ELISA. […] Cells were read every three minutes for 18 minutes on a PolarStar Optima plate reader (BMG) to establish peak signal. […] Luminescence was determined at room temperature (23-25° C.) on a PolarStar Optima plate reader (BMG). […] Relative assay bias was calculated from the ratio of normalized cAMP and arrestin recruitment responses. […] BRET was measured using a Tecan Infinite F500 microplate reader. […] Bound [35 S]GTPγS was collected by rapid filtration on GF/B filters, washed 4 times with 4 ml of cold GTPγS wash buffer and analyzed by liquid scintillation counting. […] Immunoprecipitated proteins were separated by SDS-PAGE and analyzed by western blot using a β2AR C-terminal tail or phospho-specific antibody. […]

Chain of β2AR (P07550 whole entry): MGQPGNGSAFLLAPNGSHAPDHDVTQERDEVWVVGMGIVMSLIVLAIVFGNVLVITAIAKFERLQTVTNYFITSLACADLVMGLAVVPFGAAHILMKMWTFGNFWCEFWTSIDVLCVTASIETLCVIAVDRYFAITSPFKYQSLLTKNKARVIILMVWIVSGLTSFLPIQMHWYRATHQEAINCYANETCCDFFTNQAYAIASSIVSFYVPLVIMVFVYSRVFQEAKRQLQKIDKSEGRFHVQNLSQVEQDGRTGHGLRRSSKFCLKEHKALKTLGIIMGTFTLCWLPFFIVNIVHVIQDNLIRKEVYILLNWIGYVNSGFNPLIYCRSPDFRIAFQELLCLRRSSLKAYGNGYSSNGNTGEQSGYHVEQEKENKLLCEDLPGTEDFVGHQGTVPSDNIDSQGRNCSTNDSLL

- effect on ISO-stimulated cAMP production (10 μM DFPQ, 1 μM ISO 10 min, FIG. 1B): no effect
- effect on ISO dose response curves, cAMP production readout (increasing concentrations up to 10 μM DFPQ, FIG. 1E): no effect
Structure (SMILES): Fc1ccc(Nc2nc(NC3CCCCC3)c3ccccc3n2)cc1F [DFPQ, N^4-cyclohexyl-N^2-(3,4-difluorophenyl)quinazoline-2,4-diamine]
